Earlier results as cited in patent publication US11957727B2, “Prevention of neuroinflammation associated memory loss using nutraceutical compositions” (priority 2020, dated 2024).
Like-named read-outs stand apart in the source and are kept apart here.

What was measured:
[1] = animal studies
[2] = test system: human umbilical vein VECs (HUVECs)
[3] = test system: endothelium of atherosclerotic plaque; details: PT injection, apoE(−/−) mice
[4] = test system: Nrf2 (+/+) primary peritoneal macrophages
nitric oxide = details: lipopolysaccharide-induced
[5] = test system: sepsis induction with live Escherichia coli / endotoxin (LPS 0111:B4); details: for concentration of IL-la: controls 1187.0±278.64 pg/ml
[6] = test system: myocardial ischemia and reperfusion; details: 10 mg/kg intravenously then 10 mg/kg/h infusion, rats
ulcerative colitis (UC) = details: 50 and 100 mg/kg/day
[7] = 50 mg/kg, LPS 5 mg/kg 3 days later

Q: Which bioavailability [1] does the source give for “trans-3,5-dimethoxy-4-hydroxystilbene [pterostilbene]” here?
A: 80%

Q: What about the “protection against oxLDL-induced cell shrinkage, chromatin condensation, nuclear fragmentation and apoptosis” value ([2]; HUVECs, oxLDL 200 μg/ml) of the same compound?
A: protected against such injuries

Q: And the “expression of lectin-like oxLDL receptor-1 (LOX-1)” value ([2]; in vitro and in vivo)?
A: inhibited

Q: And the “number of TUNEL-positive cells” value [3]?
A: strongly decreased

Q: With `C[S+]([O-])CCCCN=C=S` (stereo not shown) [sulforaphane, 1-isothiocyanato-4-(methylsulfinyl)-butane] as the compound, how does the “lactate dehydrogenase (LDH) activity” value (LPS-induced ARDS; [7]) read?
A: significantly decreased

Q: And the “wet-to-dry ratio of the lungs” value (LPS-induced ARDS; [7])?
A: significantly decreased

Q: And the “serum levels of interleukin-6 (IL-6) and tumor necrosis factor-α (TNF-α)” value (LPS-induced ARDS; 50 mg/kg, LPS 5 mg/kg 3 days later, ELISA)?
A: significantly decreased

Q: What about the “prostaglandin E2 (PGE2) production” value (LPS-induced ARDS; mice with LPS-induced ALI) of the same compound?
A: significantly inhibited

Q: What about the HO-1 expression ([4]; LPS-stimulated Nrf2 (+/+) macrophages) of the same compound?
A: significantly augmented

Q: And the “LPS-stimulated mRNA expression, protein expression and production of TNF-alpha, IL-1beta, COX-2 and iNOS” value ([4]; pretreatment, Nrf2 (+/+) macrophages)?
A: potently inhibited

Q: Which “concentration of nitric oxide” value (nitric oxide) does the source give for `CC1=CC(=O)C(C(C)C)=CC1=O` [thymoquinone] here?
A: reduced significantly

Q: And the “concentration of IL-la” value ([5]; 0.75 mg/kg thymoquinone dose)?
A: 310.8 ± 70.93 pg/mL

Q: And the IL-10 levels ([5]; 0.75 mg/kg thymoquinone, controls 5505.2±333.96 pg/ml)?
A: 2885.0 ± 553.98 pg/mL

Q: And the “concentration of IL-la” value ([5]; 1 mg/kg group)?
A: 428.3 ± 71.32 pg/mL

Q: What about the “levels of TNF-α and IL-2” value ([5]; P values=0.1817 and 0.0851) of the same compound?
A: relatively lower levels

Q: And the reduction of mortality ([5]; mice, thymoquinone before LPS or live E. coli challenge)?
A: 80-90%

Q: For Epigallocatechin-3-gallate [EGCG], which “myocardial damage and myeloperoxidase activity” value [6] is on record?
A: reduced

Q: What about the “plasma IL-6 and creatine phosphokinase levels” value [6] of the same compound?
A: decreased

Q: And the “release of IL-6 and IL-17” value (ulcerative colitis (UC))?
A: reduce
